Measured values from US7378090B2, “Alleviation of the memory deficits and memory components of psychiatric dysfunctions by altering atypical PKM activity” (The Research Foundation of State University of New York, priority 2001, dated 2008).
“Also recorded” adds a separate entry of the source.

Columns and labels:
Drosophila [1] = test: Olfactory-avoidance classical (Pavlovian) conditioning, memory after training; type: in vivo; conditions: for 24-h memory after massed training: wild-type flies fed 25, 50 or 100 μM chelerythrine in sucrose for 3 h, three cycles of massed training
From the text: In Drosophila, the best characterized assay for associative learning and memory is an odor-avoidance behavioral task (T. Tully, et al. J. Comp. Physiol. A157, 263-277 (1985) incorporated herein by reference). This classical (Pavlovian) conditioning involves exposing the flies to two odors (the conditioned stimuli, or CS), one at a time, in succession. During one of these odor exposures (the CS+), the flies are simultaneously subjected to electric shock (the unconditioned stimulus, or US), whereas exposure to the other odor (the CS−) lacks this negative reinforcement. Following training, the flies are then placed at a ‘choice point’, where the odors come from opposite directions, and expected to decide which odor to avoid. By convention, learning is defined as the fly's performance when testing occurs immediately after training. A single training trial produces strong learning: a typical response is that >90% of the flies avoid the CS+. Performance of wild-type flies from this single-cycle training decays over a roughly 24-hour period until flies once again distribute evenly between the two odors. Flies can also form long-lasting associative olfactory memories, but normally this requires repetitive training regimens.
Pavlovian learning and memory in Drosophila. To assess learning and memory in Drosophila, an olfactory-avoidance classical (Pavlovian) conditioning protocol was used. […] The performance index (PI) was calculated by subtracting the number of flies making the incorrect choice from those making the correct one, dividing by the total number of flies, and multiplying by 100. To avoid odor-avoidance biases, the PI of each single n was calculated by taking an average performance of two groups of flies, one group trained with the CS+ being OCT, the other with the CS+ being MCH. […]
(§1) A 4% (wt/vol) sucrose solution was used as a vehicle for the chelerythrine feeding. […] Feeding was monitored by placing 1/50 volume of green food coloring into the solutions, which could then be seen in the abdomens of flies after eating. […]

Drosophila [2] = test: Olfactory-avoidance conditioning, learning (tested immediately after single-cycle training); type: in vivo; conditions: wild-type flies fed 100 μM chelerythrine for 3 h
From the text: In Drosophila, the best characterized assay for associative learning and memory is an odor-avoidance behavioral task (T. Tully, et al. J. Comp. Physiol. A157, 263-277 (1985) incorporated herein by reference). This classical (Pavlovian) conditioning involves exposing the flies to two odors (the conditioned stimuli, or CS), one at a time, in succession. During one of these odor exposures (the CS+), the flies are simultaneously subjected to electric shock (the unconditioned stimulus, or US), whereas exposure to the other odor (the CS−) lacks this negative reinforcement. […]
Pavlovian learning and memory in Drosophila. […] The performance index (PI) was calculated by subtracting the number of flies making the incorrect choice from those making the correct one, dividing by the total number of flies, and multiplying by 100. To avoid odor-avoidance biases, the PI of each single n was calculated by taking an average performance of two groups of flies, one group trained with the CS+ being OCT, the other with the CS+ being MCH.
as §1

CA1 pyramidal cells = conditions: sustained application of low concentrations; cited from earlier work
PKMζ = molecular target: T1, PKMζ (Homo sapiens, UniProt Q05513); conditions: cited from earlier work
T1 sequence (Q05513 1-409 isoform Q05513-2): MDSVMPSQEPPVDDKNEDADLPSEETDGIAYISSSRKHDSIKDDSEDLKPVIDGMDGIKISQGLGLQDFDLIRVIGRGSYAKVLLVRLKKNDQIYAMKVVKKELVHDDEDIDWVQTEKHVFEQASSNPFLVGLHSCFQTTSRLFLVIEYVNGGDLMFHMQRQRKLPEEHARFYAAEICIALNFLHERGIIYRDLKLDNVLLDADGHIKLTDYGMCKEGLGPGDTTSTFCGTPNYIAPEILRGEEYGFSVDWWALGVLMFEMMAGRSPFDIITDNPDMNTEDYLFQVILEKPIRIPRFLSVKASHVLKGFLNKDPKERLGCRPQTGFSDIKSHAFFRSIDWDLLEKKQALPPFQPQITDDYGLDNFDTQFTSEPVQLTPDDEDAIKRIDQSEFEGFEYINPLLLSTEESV

Drosophila [3] = conditions: cited from earlier work

Q: With `COc1ccc2c(c[n+](C)c3c4cc5c(cc4ccc23)OCO5)c1OC` [chelerythrine] as the molecule, how does the “24-h memory after massed training” value (Drosophila [1]) read?
A: inhibited 24-hour memory formation in a dose-dependent manner

Q: And the “24-h memory after massed training” value (Drosophila [1]; listed as Chelerythrine)?
A: inhibits 24-h memory after massed training in a dose-dependent manner

Q: What about the learning (Drosophila [2]) of the same molecule?
A: not different; also recorded: unaffected

Q: What about the LTP maintenance (CA1 pyramidal cells) of the same molecule?
A: abolished

Q: And the “inhibition of other PKC isotypes” value (PKMζ; higher concentrations)?
A: inhibits other PKC isotypes at higher concentrations

Q: And the “inhibition of PKMζ” value (PKMζ; low concentrations)?
A: selectively inhibit PKMζ at low concentrations

Q: Which results are given for `C[C@@H]1C[C@@H]([C@H](O)CC2CC(=O)NC(=O)C2)C(=O)[C@@H](C)C1` [cycloheximide]?
A: anesthesia-resistant memory (ARM) (Drosophila [3]; massed or spaced training): insensitive; memory after spaced training of radish mutants (Drosophila [3]; radish mutants): completely blocked; long-term memory (LTM) (Drosophila [3]; spaced training): blocked

B1: FL-MaPKCζ: full-length (FL) mouse atypical PKCζ expressed from heat-shock transgene (protein, UniProt Q02956 1-592, looked up)
chain: MPSRTDPKMDRSGGRVRLKAHYGGDILITSVDAMTTFKDLCEEVRDMCGLHQQHPLTLKWVDSEGDPCTVSSQMELEEAFRLVCQGRDEVLIIHVFPSIPEQPGMPCPGEDKSIYRRGARRWRKLYRANGHLFQAKRFNRGAYCGQCSERIWGLSRQGYRCINCKLLVHKRCHVLVPLTCRRHMDSVMPSQEPPVDDKNDGVDLPSEETDGIAYISSSRKHDNIKDDSEDLKPVIDGVDGIKISQGLGLQDFDLIRVIGRGSYAKVLLVRLKKNDQIYAMKVVKKELVHDDEDIDWVQTEKHVFEQASSNPFLVGLHSCFQTTSRLFLVIEYVNGGDLMFHMQRQRKLPEEHARFYAAEICIALNFLHERGIIYRDLKLDNVLLDADGHIKLTDYGMCKEGLGPGDTTSTFCGTPNYIAPEILRGEEYGFSVDWWALGVLMFEMMAGRSPFDIITDNPDMNTEDYLFQVILEKPIRIPRFLSVKASHVLKGFLNKDPKERLGCRPQTGFSDIKSHAFFRSIDWDLLEKKQTLPPFQPQITDDYGLDNFDTQFTSEPVQLTPDDEDVIKRIDQSEFEGFEYINPLLLSAEESV
modifications: full-length
notes: full-length (FL) mouse atypical PKCζ expressed from heat-shock transgene
Q: For B1, which “24-hour memory after single-cycle training” value (Drosophila [1]; transgene induced by 30-min 32° C. heat shock after training) is on record?
A: not observed
